Target: KRas (Homo sapiens, UniProt P01116, G12C)
Assay: KRas degradation in NCI-H2030 cells by Western blot, normalized to GAPDH (data of Table 14)
Assay type: cell-based
Design: host or cells: NCI-H2030
Settings: for Dmax: NCI-H2030
Summary of the method: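 KRas/GAPDH band ratio vs DMSO lane gives % degradation; values under 25% were estimated visually, the rest quantitated. Cells are G12C homozygous, serum-free for 24 h, then dosed at 0.3/1/3 μM (0.1% DMSO). VHL-based compounds 24 h, others 72 h.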

Percent Degradation at Indicated Concentration (μM) (H2030, 0.3 μM)	Percent Degradation at Indicated Concentration (μM) (H2030, 1 μM)	Percent Degradation at Indicated Concentration (μM) (H2030, 3 μM)	Dmax [%]	Percent Degradation at Indicated Concentration (μM): 0.3 (H2030 cells, 0.3 μM)	Percent Degradation at Indicated Concentration (μM): 1 (H2030 cells, 1 μM)	Percent Degradation at Indicated Concentration (μM): 3 (H2030 cells, 3 μM)	Dmax (H2030 cells) [%]	Percent Degradation at Indicated Concentration (μM) (H2030 cells, 0.3 μM)	Percent Degradation at Indicated Concentration (μM) (H2030 cells, 1 μM)	Percent Degradation at Indicated Concentration (μM) (H2030 cells, 3 μM)	SMILES
C (Percent Degradation: C ≤ 35)	C (Percent Degradation: C ≤ 35)	C (Percent Degradation: C ≤ 35)	≤ 35								C=CC(=O)N1CCN(c2nc(NCCC(=O)N(C)CCOCCOCCN3CCN(CC(=O)N[C@H](C(=O)N4C[C@H](O)C[C@H]4C(=O)N[C@@H](C)c4ccc(-c5scnc5C)cc4)C(C)(C)C)CC3)nc3c(F)c(-c4cc(O)cc5ccccc45)c(Cl)cc23)CC1 [compound 249, (2S,4R)-1-((2S)-2-(2-(4-(2-(2-(2-(3-((4-(4-acryloylpiperazin-1-yl)-6-chloro-8-fluoro-7-(3-hydroxynaphthalen-1-yl)quinazolin-2-yl)amino)-N-methylpropanamido)ethoxy)eth-oxy)ethyl)piperazin-1-yl)acetamido)-3,3-dimethylbutanoyl)-4-hydroxy-N-((S)-1-(4-(4-methylthiazol-5-yl)phenyl)ethyl)pyrrolidine-2-carboxamide]
C (Percent Degradation: C ≤ 35)	C (Percent Degradation: C ≤ 35)	C (Percent Degradation: C ≤ 35)	≤ 35								O=C1CCC(N2C(=O)c3ccc(OCCOCCOCCOCC/C=C/C(=O)N4CCN(c5ncnc6c(F)c(-c7cc(O)cc8ccccc78)c(Cl)cc56)CC4)cc3C2=O)C(=O)N1 (centres unmarked) [compound 170, (E)-5-(2-(2-(2-((5-(4-(6-chloro-8-fluoro-7-(3-hydroxynaphthalen-1-yl)quinazolin-4-yl)piperazin-1-yl)-5-oxopent-3-en-1-yl)oxy)ethoxy)ethoxy)ethoxy)-2-(2,6-dioxopiperidin-3-yl)isoindoline-1,3-dione]
				C (C ≤ 35)	C (C ≤ 35)	C (C ≤ 35)	≤ 35				C=CC(=O)N1CCN(c2nc(NCCC(=O)N(C)CCOCCOc3cc(-c4scnc4C)ccc3CNC(=O)[C@@H]3C[C@@H](O)CN3C(=O)[C@H](c3cc(C)no3)C(C)C)nc3c(F)c(-c4cc(O)cc5ccccc45)c(Cl)cc23)CC1 [compound 340, (2S,4R)-N-(2-(2-(2-(3-((4-(4-acryloylpiperazin-1-yl)-6-chloro-8-fluoro-7-(3-hydroxynaphthalen-1-yl)quinazolin-2-yl)amino)-N-methylpropanamido)ethoxy)ethoxy)-4-(4-methylthiazol-5-yl)benzyl)-4-hydroxy-1-((S)-3-methyl-2-(3-methylisoxazol-5-yl)butanoyl)pyrrolidine-2-carboxamide]
				C (C ≤ 35)	C (C ≤ 35)	C (C ≤ 35)	≤ 35				CCC(=O)N1CCN(c2nc(NCCC(=O)N(C)CCOCCOCCOCCOc3cc(-c4scnc4C)ccc3CNC(=O)[C@@H]3C[C@@H](O)CN3C(=O)[C@H](c3cc(C)no3)C(C)C)nc3c(F)c(-c4cc(O)cc5ccccc45)c(Cl)cc23)CC1 [compound 335, (2S,4R)-N-(2-((15-((6-chloro-8-fluoro-7-(3-hydroxynaphthalen-1-yl)-4-(4-propionylpiperazin-1-yl)quinazolin-2-yl)amino)-12-methyl-13-oxo-3,6,9-trioxa-12-azapentadecyl)oxy)-4-(4-methylthiazol-5-yl)benzyl)-4-hydroxy-1-((S)-3-methyl-2-(3-methylisoxazol-5-yl)butanoyl)pyrrolidine-2-carboxamide]
C (Percent Degradation: C ≤ 35)	C (Percent Degradation: C ≤ 35)	C (Percent Degradation: C ≤ 35)	≤ 35								CN[C@@H](C)C(=O)N[C@H](C(=O)N1CCC[C@H]1c1nc(-c2ccc(OCCOCCOCCOCCOCCN(C)C(=O)CCNc3nc(N4CCN(C(C)=O)CC4)c4cc(Cl)c(-c5cc(O)cc6ccccc56)c(F)c4n3)c3ccccc23)cs1)C1CCCCC1 [compound 269, 3-((4-(4-acetylpiperazin-1-yl)-6-chloro-8-fluoro-7-(3-hydroxynaphthalen-1-yl)quinazolin-2-yl)amino)-N-(14-((4-(2-((S)-1-((S)-2-cyclohexyl-2-((S)-2-(methylamino)propan-amido)acetyl)pyrrolidin-2-yl)thiazol-4-yl)naphthalen-1-yl)oxy)-3,6,9,12-tetraoxatetradecyl)-N-methylpropanamide]
C (Percent Degradation: C ≤ 35)	C (Percent Degradation: C ≤ 35)	C (Percent Degradation: C ≤ 35)	≤ 35								CN(CCOCCOCCOCCNc1cccc2c1C(=O)N(C1CCC(=O)NC1=O)C2=O)C(=O)CCNc1nc(N2CCN(C(N)=O)CC2)c2cc(Cl)c(-c3c(O)cccc3F)c(F)c2n1 [compound 146, 4-((7S)-6-chloro-2-((1-((2-(2,6-dioxopiperidin-3-yl)-1,3-dioxoisoindolin-4-yl)amino)-12-methyl-13-oxo-3,6,9-trioxa-12-azapentadecan-15-yl)amino)-8-fluoro-7-(2-fluoro-6-hydroxyphenyl)quinazolin-4-yl)piperazine-1-carboxamide]
C (Percent Degradation: C ≤ 35)	C (Percent Degradation: C ≤ 35)	C (Percent Degradation: C ≤ 35)	≤ 35								COc1cc(-c2scnc2C)ccc1[C@H](C)NC(=O)[C@@H]1C[C@@H](O)CN1C(=O)[C@@H](c1cc(OCCOCCOCCOCCOCCN(C)C(=O)CCNc2nc(N3CCN(C(C)=O)CC3)c3cc(Cl)c(-c4cc(O)cc5ccccc45)c(F)c3n2)no1)C(C)C [compound 391, (2S,4R)-1-((2R)-2-(3-((18-((4-(4-acetylpiperazin-1-yl)-6-chloro-8-fluoro-7-(3-hydroxynaphthalen-1-yl)quinazolin-2-yl)amino)-15-methyl-16-oxo-3,6,9,12-tetraoxa-15-azaoctadecyl)oxy)isoxazol-5-yl)-3-methylbutanoyl)-4-hydroxy-N-((S)-1-(2-methoxy-4-(4-methylthiazol-5-yl)phenyl)ethyl)pyrrolidine-2-carboxamide]
				C (C ≤ 35)	C (C ≤ 35)	C (C ≤ 35)	≤ 35				C=CC(=O)N1CCN(c2nc(NCCC(=O)N(C)CCOc3ccc4c(c3)CN(C3CCC(=O)NC3=O)C4=O)nc3c(F)c(-c4cc(O)cc5ccccc45)c(Cl)cc23)CC1 (centres unmarked) [compound 64, 3-((4-(4-acryloylpiperazin-1-yl)-6-chloro-8-fluoro-7-(3-hydroxynaphthalen-1-yl)quinazolin-2-yl)amino)-N-(2-((2-(2,6-dioxopiperidin-3-yl)-1-oxoisoindolin-5-yl)oxy)ethyl)-N-methylpropanamide]
				C (C ≤ 35)	C (C ≤ 35)	C (C ≤ 35)	≤ 35				CCC(=O)N1CCN(c2nc(NCCC(=O)N(C)CCOCCOc3cc(-c4scnc4C)ccc3CNC(=O)[C@@H]3C[C@@H](O)CN3C(=O)[C@@H](c3cc(C)no3)C(C)C)nc3c(F)c(-c4cc(O)cc5ccccc45)c(Cl)cc23)CC1 [compound 330, (2S,4R)-N-(2-(2-(2-(3-((6-chloro-8-fluoro-7-(3-hydroxynaphthalen-1-yl)-4-(4-propionylpiperazin-1-yl)quinazolin-2-yl)amino)-N-methylpropanamido)ethoxy)ethoxy)-4-(4-methylthiazol-5-yl)benzyl)-4-hydroxy-1-((R)-3-methyl-2-(3-methylisoxazol-5-yl)butanoyl)pyrrolidine-2-carboxamide]
C (Percent Degradation: C ≤ 35)	C (Percent Degradation: C ≤ 35)	C (Percent Degradation: C ≤ 35)	≤ 35								Cc1ncsc1-c1ccc([C@H](C)NC(=O)[C@@H]2C[C@@H](O)CN2C(=O)[C@@H](NC(=O)COCCOCCOCCOCC/C=C/C(=O)N2CCN(c3nc(NCCC(=O)N(C)C)nc4c(F)c(-c5cc(O)cc6ccccc56)c(Cl)cc34)CC2)C(C)(C)C)cc1 [compound 366]
								C (Percent Degradation: C ≤ 35)	C (Percent Degradation: C ≤ 35)	C (Percent Degradation: C ≤ 35)	C=CC(=O)N1CCN(c2nc(O[C@H](C)CN3CCC(OCCOCCOCCOCC(=O)N[C@H](C(=O)N4C[C@H](O)C[C@H]4C(=O)N[C@@H](C)c4ccc(-c5scnc5C)cc4)C(C)(C)C)CC3)nc3c2CCN(c2cc(O)cc4ccccc24)C3)CC1 [compound 408]
C (Percent Degradation: C ≤ 35)	C (Percent Degradation: C ≤ 35)	C (Percent Degradation: C ≤ 35)	≤ 35								C=CC(=O)N1CCN(c2nc(NCCC(=O)N(C)CCOCCOCCOCCOCCOCCOCCOCCOCCOCCOCC(=O)N[C@H](C(=O)N3C[C@H](O)C[C@H]3C(=O)N[C@@H](C)c3ccc(-c4scnc4C)cc3)C(C)(C)C)nc3c(F)c(-c4cc(O)cc5ccccc45)c(Cl)cc23)CC1 [compound 198, (2S,4R)-1-((2S)-39-((4-(4-acryloylpiperazin-1-yl)-6-chloro-8-fluoro-7-(3-hydroxynaphthalen-1-yl)quinazolin-2-yl)amino)-2-(tert-butyl)-36-methyl-4,37-dioxo-6,9,12,15,18,21,24,27,30,33-decaoxa-3,36-diazanonatriacontanoyl)-4-hydroxy-N-((S)-1-(4-(4-methylthiazol-5-yl)phenyl)ethyl)pyrrolidine-2-carboxamide]
